Read-outs that look alike come from different tables or passages of the source. Bridge positions count the residues as written; N and C are the ends. Square brackets hold non-standard residues; d marks the D form. Ends that are not written are not given here. Abu = CC[C@H](N)C(=O)O
How the values were obtained:
[1] = test system: mouse immature dendritic JAWSII cells; assay: Chemotaxis assay, 48-well microchemotaxis chamber; type: cell-based; conditions: Fig. 9; n = 5
Experimental: Migration of JAWSII and CCR2-CHO-K1 cells in response to AvBD-12 analogues was determined using a 48-well microchemotaxis chamber technique as previously described. Chemotaxis buffer (Minimum Essential Medium containing 0.1% BSA, 100U/ml penicillin, and 100 μg/ml streptomycin) and bacterial peptide N-Formyl-methionyl-leucyl-phenylalanine (fMLF, Sigma-Aldrich) were included as negative and positive controls, respectively. The results were presented as chemotactic index (C.I.). C.I. = number of migrated cells induced by AvBDs / number of migrated cells induced by chemotactic buffer. The assay was repeated five times.

[2] = test system: S. Typhimurium (ATCC 14028); type: cell-based, Salmonella enteric serovar Typhimurium
Experimental: (§1) The minimum inhibitory concentrations (MIC) of AvBDs were determined according to the guidelines of the Clinical and Laboratory Standards Institute (CLSI). The Muller Hinton II broth used in standard MIC assays contained 20–25 mg/L of calcium and 10–12.5 mg/L of magnesium. Modified MICs of AvBDs were also determined under a low-salt and low-nutrient condition by using 100× diluted Muller Hinton II broth containing 0.2 mg/L of calcium, 0.1 mg/L magnesium and 5 mM (292 mg/L) NaCl. MIC obtained under the low-salt and low-nutrient condition was referred to as MIC-ls. AvBD peptides were two-fold serially diluted (2 to 256 μg/ml) in a 96-well microtiter plate. An equal volume (μl) of bacterial suspension was added to each well of the plate. The final bacterial concentration in the wells was 5 × 10^5 CFU/ml. […] To complement MIC-ls assays, the minimum bactericidal concentrations (MBC) were evaluated by sub-culturing the contents of the first two clear wells obtained in the MIC-ls assay onto LB agar plates. All assays were conducted in triplicate. The lowest peptide concentration inhibiting more than 99% of bacterial growth was defined as MBC-ls. AvBD analogues were regarded as bactericidal if the MBC was no more than four times the MIC [29].

E. coli (ATCC 25922) = type: cell-based, Escherichia coli
Experimental: as §1

[3] = test system: P. aeruginosa (ATCC 27853); type: cell-based, Pseudomonas aeruginosa
Experimental: as §1

S. aureus (ATCC 29213) = type: cell-based, Staphylococcus aureus
Experimental: as §1

CHO-K1 cells = assay: MTT cell cytotoxicity assay; type: cell-based; conditions: 256 μg/ml; 4, 12, 24 and 48 hours; Student t-test treated vs untreated; n = 3; Figure S1
Experimental: Chicken macrophage cell lines MQ-NCSU and HD11 were maintained in RPMI-1640 media supplemented with 10% fetal bovine serum (FBS), 2% chicken serum, 100 U/ml penicillin and 100 μg/ml streptomycin (Sigma-Aldrich) at 37 °C in humidified air with 5% CO2. CHO-K1 cells were cultured in the same media without 2% chicken serum. For CCR2-transfected CHO-K1 cells, the medium was supplemented with 500 μg/ml G418 was added (Sigma-Aldrich). Murine immature dendritic cell line JAWSII (ATCC CRL-11904™) was cultured in Alpha minimum essential medium containing 4 mM L-glutamine, 1 mM sodium pyruvate, 5 ng/ml murine Granulocyte macrophage colony-stimulating factor (GM-CSF), 20% FBS, 100 U/ml penicillin and 100 μg/ml streptomycin at 37 °C in humidified air with 5% CO2. The cell cytotoxicity was determined using the MTT (3-(4, 5-dimethylthiazol-2-yl)-2, 5-diphenyltetrazolium bromide metabolic activity assay according to the manufacturer’s instruction (Thermo Fisher Scientific). Briefly, cells (5 × 10^3 cells/well) were seeded in 96-well tissue culture plates, incubated overnight and treated with AvBDs at concentrations of 4, 16, 64 and 256 μg/ml for 4, 12, 24 and 48 h at 37 °C. After treatment, 20 μl of 12 mM MTT solution was added to each well. The plate was incubated for 4 h and read at 540 nm. Viability was expressed as percentage of viable cells relative to the untreated control. The experiments were performed in triplicate.

[4] = test system: Salmonella enteric serovar Typhimurium (ATCC 14028); type: cell-based; conditions: for percent of killing of S. Typhimurium: 16 μg/ml
Experimental: (§2) Escherichia coli (ATCC 25922), Pseudomonas aeruginosa (ATCC 27853), Salmonella enteric serovar Typhimurium (ATCC 14028) and Staphylococcus aureus (ATCC 29213) were used to assess the antimicrobial activity of AvBD analogues. All bacterial strains were grown on Luria-Bertani (LB) agar plates or Trypticase Soy Agar with 5% Sheep Blood (TSA, Thermo Fisher Scientific) plates at 37 °C. Antimicrobial activity was determined by a colony counting assay. In brief, bacteria were resuspended in 100-fold diluted Mueller Hinton II broth with 5 mM NaCl (minimal growth medium) to obtain a final bacterial concentration of 2 × 10^5 CFU/ml. Twenty-five microliters of bacterial suspension and 25 μl of AvBD analogue solution were mixed in the wells of a 96-well polypropylene microtiter plate (Nunc™, Thermo Fisher Scientific). The final peptide concentrations were 2, 4, 8, 16, 32, 64 and 128 μg/ml. The minimal growth medium without AvBD peptide was included as a negative control. The bacterial-peptide mixtures were incubated at 37 °C for 2 h, ten-fold serially diluted and plated on LB agar plates. The numbers of bacteria colonies were enumerated after 16 h of incubation at 37 °C. Antimicrobial activity was expressed as percent of killing using the following formula: (CFUcontrol - CFUtreated) / CFUcontrol × 100%. To assess the resistance of AvBD analogues to sodium chloride (NaCl), antimicrobial assays were carried out in the presence of 5 mM, 50 mM, 100 mM or 150 mM NaCl. All assays were performed in triplicate.

[5] = test system: Staphylococcus aureus (ATCC 29213); type: cell-based; conditions: ATCC 29213, 2 h; for percent of killing of S. aureus: 16 μg/ml
Experimental: as §2

[6] = test system: Escherichia coli (ATCC 25922); type: cell-based; conditions: ATCC 25922, 2 h, 16 μg/ml
Experimental: as §2

[7] = test system: Pseudomonas aeruginosa (ATCC 27853); type: cell-based; conditions: ATCC 27853, 2 h; for percent of killing of P. aeruginosa: 16 μg/ml
Experimental: as §2

[8] = 100× diluted Muller Hinton II broth, 5 mM NaCl, 5 × 10^5 CFU/ml, 37 °C, 24 h, triplicate
[9] = CLSI, standard Muller Hinton II broth, 5 × 10^5 CFU/ml, 37 °C, 24 h, triplicate
[10] = sub-culture of clear MIC-ls wells on LB agar, lowest concentration inhibiting more than 99% of growth, triplicate

Substance	chemotactic activity for JAWSII cells (in words) [1]	MBC-ls S. Typhimurium (ATCC 14028) ([2]; ATCC 14028, 24 h)	MIC-ls S. Typhimurium (ATCC 14028) ([2]; ATCC 14028, 24 h)	MBC-ls E. coli (ATCC 25922) (E. coli (ATCC 25922); ATCC 25922, 24 h)	MIC-ls E. coli (ATCC 25922) (E. coli (ATCC 25922); ATCC 25922, 24 h)	MBC-ls P. aeruginosa (ATCC 27853) ([3]; ATCC 27853, 24 h)	MIC-ls P. aeruginosa (ATCC 27853) ([3]; ATCC 27853, 24 h)	MBC-ls S. aureus (ATCC 29213) (S. aureus (ATCC 29213); ATCC 29213, 24 h)	MIC-ls S. aureus (ATCC 29213) (S. aureus (ATCC 29213); ATCC 29213, 24 h)	percent of killing of S. aureus [5]	percent of killing of E. coli [6]	percent of killing of S. Typhimurium ([4]; ATCC 14028, 2 h)	percent of killing of P. aeruginosa [7]	other results
GPDSC^1NHDRGLC^2RVGNC^3NPGEYLAKYC^4FEPVILC^5C^6VRNRWA (bicyclic or more) [AvBD-12/6, group 3 hybrid peptide: backbone of AvBD-12 with amino acid residues of AvBD-6]	retained the chemotactic function													MIC-ls S. Typhimurium (ATCC 14028) [2, 8]: 16 µg/mL; MIC S. Typhimurium (ATCC 14028) [2, 9]: >256 µg/mL; MBC-ls S. Typhimurium (ATCC 14028) [2, 10]: 64 µg/mL; MIC-ls E. coli (ATCC 25922) (E. coli (ATCC 25922); [8]): 8 µg/mL; MIC E. coli (ATCC 25922) (E. coli (ATCC 25922); [9]): 256 µg/mL; MBC-ls E. coli (ATCC 25922) (E. coli (ATCC 25922); [10]): 32 µg/mL; MIC-ls P. aeruginosa (ATCC 27853) [3, 8]: 64 µg/mL; MIC P. aeruginosa (ATCC 27853) [3, 9]: >256 µg/mL; MBC-ls P. aeruginosa (ATCC 27853) [3, 10]: 256 µg/mL; MIC-ls S. aureus (ATCC 29213) (S. aureus (ATCC 29213); [8]): 256 µg/mL; MIC S. aureus (ATCC 29213) (S. aureus (ATCC 29213); [9]): 256 µg/mL; MBC-ls S. aureus (ATCC 29213) (S. aureus (ATCC 29213); [10]): 256 µg/mL; metabolic activity (viability relative to untreated control), CHO-K1 (CHO-K1 cells): No significant difference was found
GPDS[Abu]NHDRGLCRVGNCNPGEYLAKYCFEPVIL[Abu]CKPLSPTPTKT (disulfide 12-27, 17-35) [AvBD-12A4]		>256 µg/mL	256 µg/mL	>256 µg/mL	128 µg/mL	>256 µg/mL	256 µg/mL	>256 µg/mL	>256 µg/mL					killing activity against S. Typhimurium compared with AvBD-12 (in words) ([4]; 2 to 128 μg/ml, 2 h at 37 °C, p < 0.05, Fig. 4): weaker action than AvBD-12
GPDS[Abu]NHDRGL[Abu]RVGNCNPGEYLAKY[Abu]FEPVIL[Abu]CKPLSPTPTKT (disulfide 17-35) [AvBD-12A5]	lost their chemotactic activity	>256 µg/mL	256 µg/mL	256 µg/mL	64 µg/mL	>256 µg/mL	256 µg/mL	>256 µg/mL	>256 µg/mL					
GPDS[Abu]NHDRGL[Abu]RVGN[Abu]NPGEYLAKY[Abu]FEPVIL[Abu][Abu]KPLSPTPTKT [AvBD-12A6]	lost their chemotactic activity	>256 µg/mL	256 µg/mL	256 µg/mL	64 µg/mL	>256 µg/mL	256 µg/mL	>256 µg/mL	>256 µg/mL					
GPHSANHVRGLARVGNANPGLYLAKYAFIPVILAAKPLSPTPTKT [AvBD-12A1]		128 µg/mL	32 µg/mL	32 µg/mL	8 µg/mL	256 µg/mL	32 µg/mL	>256 µg/mL	256 µg/mL	77.2%	88.6%	95.6%	72.3%	
GPRSSNHKRGLSRVGNSNPGKYLAKYAFRPVILAAKPLSPTPTKT [AvBD-12A2]		64 µg/mL	16 µg/mL	16 µg/mL	4 µg/mL	32 µg/mL	16 µg/mL	256 µg/mL	256 µg/mL	83.1%	100%	93.9%	98%	killing activity against S. aureus retained at 150 mM NaCl ([5]; 64 μg/ml): 30-60%; killing potency against E. coli retained at 150 mM NaCl [6]: approximately 80%; killing activity against S. Typhimurium retained at 150 mM NaCl ([4]; ATCC 14028, 2 h, 32 μg/ml): 30-60%; killing potency against P. aeruginosa retained at 150 mM NaCl ([7]; 32 μg/ml): approximately 80%

Source: paper PMC5324278, “Novel synthetic analogues of avian β-defensin-12: the role of charge, hydrophobicity, and disulfide bridges in biological functions” (BMC Microbiology, 2017)
